# Reference: article PMC11157767 (Molecular Cancer, 2024)
# Tested on: TFG-MET allograft tumors
# Assay: RNA-sequencing, differential expression and GSEA of TFG-MET allograft tumors
# Type: in vivo, mouse
# Description: Error bars display standard error of mean, statistical significance was determined using t-test analysis. (****;p<0.0001, ***;p<0.001, **;p<0.01, *;p<0.05). […] Each dot represents an individual replicate. Error bars display standard error of the mean.
# Each dot represents one gene.
# [1] = GSEA CAP vs Veh, C5 GO CC, padj 0.0837675
# [2] = GSEA CAP vs Veh, C5 GO CC, padj 0.118081
# [3] = GSEA CAP vs Veh, C5 GO CC, padj 0.15025
# [4] = GSEA CAP vs Veh, C5 GO CC, padj 0.172143
# [5] = GSEA CAP vs Veh, C5 GO CC, padj 0.185573
# [6] = GSEA CAP vs Veh, C5 GO CC, padj 0.189724
# [7] = GSEA CAP vs Veh, C5 GO CC, padj 0.205885
# [8] = GSEA CAP vs Veh, C5 GO CC, padj 0.207988
# [9] = capmatinib vs vehicle, PD cohort
smiles,measurement,setting,value
CNC(=O)c1ccc(-c2cnc3ncc(Cc4ccc5ncccc5c4)n3n2)cc1F [Capmatinib],NES GOCC_TRIGLYCERIDE_RICH_PLASMA_LIPOPROTEIN_PARTICLE,[1],1.6067
same,NES GOCC_VESICLE_TETHERING_COMPLEX,[1],1.4789
same,NES GOCC_IMMUNOLOGICAL_SYNAPSE,"GSEA CAP vs Veh, C5 GO CC, padj 0.0851978",1.513
same,NES GOCC_TOR_COMPLEX,"GSEA CAP vs Veh, C5 GO CC, padj 0.0863609",-1.558
same,NES GOCC_POTASSIUM_CHANNEL_COMPLEX,"GSEA CAP vs Veh, C5 GO CC, padj 0.0898434",1.3322
same,NES GOCC_PHOTORECEPTOR_OUTER_SEGMENT,"GSEA CAP vs Veh, C5 GO CC, padj 0.0912598",1.398
same,NES GOCC_NON_MOTILE_CILIUM,"GSEA CAP vs Veh, C5 GO CC, padj 0.0963826",1.327
same,NES GOCC_COLLAGEN_TRIMER,"GSEA CAP vs Veh, C5 GO CC, padj 0.100203",1.361
same,NES GOCC_CYCLIN_DEPENDENT_PROTEIN_KINASE_HOLOENZYME_COMPLEX,"GSEA CAP vs Veh, C5 GO CC, padj 0.101289",-1.485
same,NES GOCC_PHAGOPHORE_ASSEMBLY_SITE_MEMBRANE,"GSEA CAP vs Veh, C5 GO CC, padj 0.101632",1.59
same,NES GOCC_MICROTUBULE_END,"GSEA CAP vs Veh, C5 GO CC, padj 0.104588",-1.488
same,NES GOCC_MRNA_CLEAVAGE_AND_POLYADENYLATION_SPECIFICITY_FACTOR_COMPLEX,"GSEA CAP vs Veh, C5 GO CC, padj 0.106777",-1.514
same,NES GOCC_PERICENTRIOLAR_MATERIAL,"GSEA CAP vs Veh, C5 GO CC, padj 0.107544",-1.541
same,NES GOCC_SPERM_MIDPIECE,"GSEA CAP vs Veh, C5 GO CC, padj 0.11014",1.543
same,NES GOCC_FILAMENTOUS_ACTIN,"GSEA CAP vs Veh, C5 GO CC, padj 0.113803",-1.495
same,NES GOCC_CONDENSED_NUCLEAR_CHROMOSOME,"GSEA CAP vs Veh, C5 GO CC, padj 0.117551",-1.436
same,NES GOCC_ENDOPLASMIC_RETICULUM_EXIT_SITE,[2],-1.477
same,NES GOCC_MITOTIC_SPINDLE,[2],-1.3459
same,NES GOCC_TERTIARY_GRANULE_LUMEN,[2],1.448
same,NES GOCC_MICROTUBULE_ORGANIZING_CENTER,"GSEA CAP vs Veh, C5 GO CC, padj 0.119924",-1.201
same,NES GOCC_ESC_E_Z_COMPLEX,"GSEA CAP vs Veh, C5 GO CC, padj 0.125326",-1.503
same,NES GOCC_MITOCHONDRIAL_PROTEIN_CONTAINING_COMPLEX,"GSEA CAP vs Veh, C5 GO CC, padj 0.144325",1.2339
same,NES GOCC_MICROBODY_LUMEN,[3],1.378
same,NES GOCC_PLATELET_DENSE_GRANULE,[3],1.446
same,NES GOCC_POSTSYNAPTIC_CYTOSOL,[3],-1.504
same,NES GOCC_DNA_HELICASE_COMPLEX,"GSEA CAP vs Veh, C5 GO CC, padj 0.150544",-1.462
same,NES GOCC_H4_H2A_HISTONE_ACETYLTRANSFERASE_COMPLEX,"GSEA CAP vs Veh, C5 GO CC, padj 0.153451",-1.479
same,NES GOCC_T_TUBULE,"GSEA CAP vs Veh, C5 GO CC, padj 0.166785",1.333
same,NES GOCC_CELL_DIVISION_SITE,[4],-1.364
same,NES GOCC_CILIARY_MEMBRANE,[4],1.297
same,NES GOCC_NUCLEAR_INNER_MEMBRANE,[4],-1.39
same,NES GOCC_SPERM_PRINCIPAL_PIECE,[4],1.449
same,NES GOCC_PROTEIN_KINASE_COMPLEX,"GSEA CAP vs Veh, C5 GO CC, padj 0.174487",-1.355
same,NES GOCC_SARCOPLASMIC_RETICULUM_MEMBRANE,"GSEA CAP vs Veh, C5 GO CC, padj 0.176238",1.347
same,NES GOCC_TRANSCRIPTION_FACTOR_TFIID_COMPLEX,"GSEA CAP vs Veh, C5 GO CC, padj 0.181046",-1.393
same,NES GOCC_ENDOSOME_LUMEN,[5],1.406
same,NES GOCC_SPECIFIC_GRANULE_LUMEN,[5],1.358
same,NES GOCC_CLATHRIN_ADAPTOR_COMPLEX,[6],1.366
same,NES GOCC_MITOTIC_SPINDLE_POLE,[6],-1.382
same,NES GOCC_MEMBRANE_MICRODOMAIN,"GSEA CAP vs Veh, C5 GO CC, padj 0.192589",1.19
same,NES GOCC_CELL_BODY_MEMBRANE,"GSEA CAP vs Veh, C5 GO CC, padj 0.197703",1.35
same,NES GOCC_VACUOLAR_PROTON_TRANSPORTING_V_TYPE_ATPASE_COMPLEX,"GSEA CAP vs Veh, C5 GO CC, padj 0.198626",1.413
same,NES GOCC_DENDRITIC_SHAFT,[7],1.333
same,NES GOCC_NUCLEAR_OUTER_MEMBRANE,[7],-1.409
same,NES GOCC_SAGA_TYPE_COMPLEX,"GSEA CAP vs Veh, C5 GO CC, padj 0.206418",-1.409
same,NES GOCC_CLATHRIN_COAT,[8],1.308
same,NES GOCC_PHOTORECEPTOR_INNER_SEGMENT,[8],1.275
same,NES GOCC_INTEGRAL_COMPONENT_OF_SYNAPTIC_VESICLE_MEMBRANE,"GSEA CAP vs Veh, C5 GO CC, padj 0.210702",1.319
same,expression of Mapk signature genes in tumors,RNA-sequencing of treated allograft tumors,significant downregulation
same,"GSEA NES, PID_Atm_pathway",[9],-1.751
same,"GSEA NES, PID_Atr_pathway",[9],-2.041
same,expression of genes involved in the DNA repair machinery,"capmatinib-treated vs vehicle tumors, PD cohort",downregulated
